# Patent EP4431090A1, “SOLFONAMIDES ACTING AS MITOCHONDRIAL COMPLEX I MODULATOR COMPOUNDS” (Istesso 1 Limited, priority 2023, dated 2024)
# Values joined by “and” are separate entries in the source; they are usually repeats but may differ in a detail not shown here. Equal entries are not always repeated. Marks after values point to notes of the source that are not given here.
# How the values were obtained:
# [1] = tested on: human primary lung fibroblasts; assay: Cell proliferation (BrdU incorporation, nucleus counts) with compound washout; assay type: cell-based; settings: for cell proliferation (BRdU incorporation and nucleus counts): pyruvate-restricted conditions, 24-hours compound treatment; for recovery of cell proliferation after compound washout (BrdU incorporation and nucleus counts): 24-hours incubation in pyruvate-free media, highest tested concentration
# Method: Human primary lung fibroblasts were plated at a concentration of 5 × 10^3 cells/well in 96well plates in 100 µL DMEM complete media (5.5 mM glucose, 2 mM L-glutamine, and 1 mM pyruvate) containing 1% penicillin-streptomycin and 10% heat-inactivated foetal bovine serum. Cells were incubated overnight at 37°C / 5% CO2 to allow cell attachment. On the day of the treatment, cell culture medium was removed, and the cells were washed three times with Gibco™ DMEM, no glucose, no L-glutamine, no pyruvate, no phenol red + 1% penicillin-streptomycin and 10% heat inactivated foetal bovine serum (termed `basal' culture medium). Fresh cell culture media (without pyruvate) was added to the wells. Test compounds were prepared as 10x final concentration solutions in pyruvate-free medium. Following 24-hours compound treatment (in 5% CO2,37°C cell incubator), spent medium was removed from all wells and were thoroughly washed thrice with basal cell culture medium. For washout assay condition, 100 µL of pyruvate-free media was added per well. For No Washout, 90 µL of pyruvate-free media and 10 µL of 10x final assay concentration prepared test agents (or assay media) were added per well. Recovery of cell proliferation was measured after 24-hours incubation at 37°C / 5% CO2 with either pyruvate-free media (without re-addition of the compound) or re-addition of compounds in pyruvate-free media.
# To assess nucleus counts, formaldehyde was added to a final concentration of 4%. Following a further 20-minute incubation at room temperature, the medium was aspirated, the cells were washed twice with 200 µL TBS-T (1x TBS + 0.1% Tween 20) and the nuclei were stained with 50 µL of PBS containing 10% heat inactivated foetal bovine serum, 0.1% Triton-X-100 and 2 µM Hoechst dye. Following a 30-minute incubation at room temperature, protected from light, the cells were washed twice with TBS-T, and cells were counted in 100 µL PBS solution using an ImageXpress Pico system with stitched plate acquisition (4x magnification), DAPI channel (50 ms exposure, -3 digital confocal setting).
# When cells grow and divide (termed proliferation), cells progress through the cell cycle, a tightly regulated process that consists of two main activities: DNA replication and mitosis/cell division. As a method of accurately quantifying cellular proliferation rate, the pyrimidine analogue, BrdU can be utilised to measure DNA replication. BrdU can be incorporated into the newly synthesized DNA in place of thymidine. Following incubation of proliferating cells with BrdU for 20 hours, labelling solution was removed thoroughly, and cells were fixed with 70 µL of fix solution for 30 min at room temperature. […] Eu-fluorescence was measured in a time-resolved manner using the PHERAstar FSX (Ex337/ Em620 nm). […]
# [2] = tested on: collagen-induced arthritis; assay: Mouse collagen-induced arthritis; assay type: in vivo, DBA/1j mice
# [3] = tested on: bleomycin-induced lung fibrosis; assay: Mouse bleomycin-induced lung fibrosis; assay type: in vivo, C57BI/6 mice; settings: scale 0-5, Dose (mg/kg/day): Nintedanib 30 b.d., HMC-C-01-A 10 q.d., mean ± s.e.m.
# Method: Eight- to ten-week-old female C57BI/6 mice were used for all procedures. Animals were housed in groups of 4 and were maintained at 22°C ± 3°C on a 12-hour light/dark cycle with food and water ad libitum. Bleomycin was prepared by dissolving in saline at 1.5 mg/mL. All mice were administered intranasally with 3 mg/kg bleomycin. Seven days after bleomycin administration, vehicle control, nintedanib or MCIM compound administration was initiated. Nintedanib was administered twice daily (b.d.) by oral gavage at a total daily dose of 30 mg/kg/day for 14 days. MCIM compounds were administered once daily (q.d.) by oral gavage at a total daily dose of either 10 or 20 mg/kg/day for 14 days.
# On the 14th day, lungs were collected after perfusion. The left lung lobe was assessed for fibrosis by measuring total lung hydroxyproline levels. The right lung lobes were fixed and sectioned for histopathology. […]
# The data were analysed by generating an average histopathology score across each treatment group. […]
# [4] = tested on: human primary myeloid cells (osteoclasts); assay: Mitochondrial phenotype assessment in osteoclasts (electron microscopy); assay type: cell-based; settings: rotenone 100 nM; Figure 3B
# Method: Peripheral blood mononuclear cells were isolated from human whole blood by differential centrifugation over Ficoll-Paque PLUS (GE Healthcare Biosciences). CD14+ monocytes were purified from the freshly isolated PBMCs using the CD14+ selection kit (StemCells. UK) by positive magnetic selection according to manufacturer's instructions . Cells were differentiated to osteoclasts by adding 1×10^6 ml-1 cells in complete minimum essential medium-alpha supplemented with 10% heat inactivated fetal bovine serum (FBS, Invitrogen,UK),2mM glutamine (Invitrogen,UK) 20U ml-1 penicillin, 100ug/ml streptomycin (Sigma ALdrich, UK) along with 25ng ml-1 recombinant human M-CSF (Peprotech, UK) and 25 ng ml-1 RANKL for 6 days. On th^e 6th day, the cells were treated with test compound (final concentration 0.03-1 uM, 0,05 % DMSO) or a control, rotenone (100 nM).
# Adherent cells were fixed in 2.5% glutaraldehyde in 0.1 M cacodylate buffer, pH 7.4, for 1 h, post fixed with 1% osmium tetroxide (Electron Microscopy Science), dehydrated in a graded series of ethanol, and embedded in Epon (Electron Microscopy Science). The embedded samples were sectioned by an ultramicrotome (Ultracut E, Richert-Jung, Leica Microsystem). Thin sections (90 nm thick) were collected on 300 mesh nickel grids and stained with uranyl acetate (Electron Microscopy Science) and lead citrate. […]
structure (smiles),measurement,setting,value
Cc1nc(-c2nc(-c3ccc(OC(F)(F)F)cc3)no2)nn1Cc1cccc(N2CCC(S(C)(=O)=O)CC2)c1 [IACS-010759],cell proliferation (BRdU incorporation and nucleus counts),[1],reduce cell proliferation
same,recovery of cell proliferation after compound washout (BrdU incorporation and nucleus counts),[1],no recovery
C[C@@H]1CCN(C(=O)CC#N)C[C@@H]1N(C)c1ncnc2[nH]ccc12 [Tofacitinib],appearance of the osteoid/new bone formed,"[2]; 10 mg/kg/day MCIM compound, 3 mg/kg/day etanercept, Figure 23, tofacitinib data not shown",reactive and sporadic deposits
same,Bone resorption (sum) Treatment value,"[2]; once daily for 14 days, Dose (mg/kg/day) as printed: Etanercept 3, HMC-C-01-A 3, all others 10, sum from all limbs per animal per group",48**
same,Bone formation (sum) Treatment value,"[2]; osteoid zones, once daily for 14 days, Dose (mg/kg/day) as printed: Etanercept 3, HMC-C-01-A 3, all others 10, sum from all limbs per animal per group",0
COC(=O)c1ccc2c(c1)NC(=O)/C2=C(\Nc1ccc(N(C)C(=O)CN2CCN(C)CC2)cc1)c1ccccc1 [Nintedanib],AT2 cell number Treatment value,"[3]; hyperplasia score, ABD900 20 q.d., two studies",1.6 ± 0.2 and 1.1 ± 0.1
same,AT2 cell size Treatment value,[3]; hypertrophy score,1.6 ± 0.2
C=C(C)[C@H]1Cc2c(ccc3c2O[C@@H]2COc4cc(OC)c(OC)cc4[C@@H]2C3=O)O1 [rotenone],mitochondrial morphology,[4],increased numbers of abnormal mitochondria which were more rounded and had condensed cristae with evidence of fragmentation
same,cell proliferation (BRdU incorporation and nucleus counts),[1],reduce cell proliferation
same,recovery of cell proliferation after compound washout (BrdU incorporation and nucleus counts),[1],no recovery
